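The compound was tested at five concentrations on cells cultured in 96-well plates, with a 48-hour exposure period. GI50 marks 50% less growth. The concentration for full growth arrest is given as TGI.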
Tests used:
Assay in all cases: DTP human tumour cell line panel, 48 h
A498 renal = system: A498 renal
COLO 205 colon = system: COLO 205 colon
EKVX NSCLC = system: EKVX NSCLC
KM12 colon = system: KM12 colon
MOLT-4 leukemia = system: MOLT-4 leukemia
NCI-H23 lung = system: NCI-H23 lung
RPMI-8226 leukemia = system: RPMI-8226 leukemia
RXF 393 renal = system: RXF 393 renal
SF-268 CNS = system: SF-268 CNS
LOX IMVI melanoma = system: LOX IMVI melanoma

COc1ccc(-c2ccc(/C=N/n3cn[nH]c3=S)o2)c([N+](=O)[O-])c1
GI50 (A498 renal): 1.35 µM
TGI (A498 renal): 10.3 µM
GI50 (COLO 205 colon): 45.6 µM
TGI (COLO 205 colon): > 100 µM
GI50 (EKVX NSCLC): 75 µM
TGI (EKVX NSCLC): > 100 µM
GI50 (KM12 colon): 27.2 µM
TGI (KM12 colon): > 100 µM
GI50 (MOLT-4 leukemia): 16.3 µM
TGI (MOLT-4 leukemia): 50.8 µM
GI50 (NCI-H23 lung): 39.3 µM
TGI (NCI-H23 lung): > 100 µM
GI50 (RPMI-8226 leukemia): 22.5 µM
TGI (RPMI-8226 leukemia): 70.1 µM
GI50 (RXF 393 renal): 32.2 µM
TGI (RXF 393 renal): > 100 µM
GI50 (SF-268 CNS): 29.1 µM
TGI (SF-268 CNS): > 100 µM

CC1(C)CCSC(/C=C/c2ccccc2)=N1
TGI (A498 renal): 36.4 µM
TGI (EKVX NSCLC): 63.7 µM
TGI (KM12 colon): 26.1 µM
TGI (LOX IMVI melanoma): 27.8 µM
TGI (MOLT-4 leukemia): > 100 µM
TGI (NCI-H23 lung): 33.9 µM
TGI (RPMI-8226 leukemia): 62.6 µM
TGI (RXF 393 renal): 47.7 µM
TGI (SF-268 CNS): 80.3 µM

O=C(CC(=O)Nc1ccc(Cl)cc1)NNCC(=O)Nc1nc(-c2ccccc2)cs1
TGI (COLO 205 colon): > 100 µM
TGI (EKVX NSCLC): > 100 µM
TGI (KM12 colon): > 100 µM
TGI (LOX IMVI melanoma): > 100 µM
TGI (MOLT-4 leukemia): > 100 µM
TGI (NCI-H23 lung): > 100 µM
TGI (RPMI-8226 leukemia): > 100 µM
TGI (RXF 393 renal): > 100 µM
TGI (SF-268 CNS): > 100 µM

CC1C(=O)N=C2C(=CN(Cc3ccccc3)c3ccccc32)C(=O)N1C (stereo not drawn)
TGI (A498 renal): > 100 µM
TGI (COLO 205 colon): > 100 µM
TGI (KM12 colon): > 100 µM
TGI (NCI-H23 lung): > 100 µM
TGI (RPMI-8226 leukemia): > 100 µM
TGI (RXF 393 renal): > 100 µM
TGI (SF-268 CNS): > 100 µM

COc1ccc(C2CC(=O)Nc3c2c(C)nn3-c2nc3ccccc3[nH]2)cc1 (stereo not drawn)
GI50 (A498 renal): 1.89 µM
TGI (A498 renal): 5.46 µM
GI50 (COLO 205 colon): 3.59 µM
TGI (COLO 205 colon): 14.7 µM
GI50 (KM12 colon): 2.72 µM
TGI (KM12 colon): 7.09 µM
GI50 (MOLT-4 leukemia): 0.0589 µM
TGI (MOLT-4 leukemia): 0.326 µM
GI50 (NCI-H23 lung): 2.57 µM
TGI (NCI-H23 lung): 6.83 µM
GI50 (RPMI-8226 leukemia): 2.41 µM
TGI (RPMI-8226 leukemia): 5.48 µM
GI50 (RXF 393 renal): 2.63 µM
TGI (RXF 393 renal): 8.92 µM
GI50 (SF-268 CNS): 3.86 µM
TGI (SF-268 CNS): 97.7 µM

CC1CCC2(OC1)OC1CC3C4CC=C5CC(OC6OC(CO)C(OC7OC(C)C(OC8OC(C)C(O)C(O)C8O)C(O)C7O)C(O)C6OC6OC(C)C(O)C(O)C6O)CCC5(C)C4CCC3(C)C1C2C (stereo not drawn)
TGI (A498 renal): 1.55 µM
TGI (COLO 205 colon): 3.06 µM
TGI (EKVX NSCLC): 2.1 µM
TGI (KM12 colon): 1.43 µM
TGI (LOX IMVI melanoma): 0.733 µM
TGI (MOLT-4 leukemia): 0.958 µM
TGI (NCI-H23 lung): 3.13 µM
TGI (RXF 393 renal): 2.05 µM
TGI (SF-268 CNS): 2.03 µM

CCNC(=O)C(O)C1(O)CCC2[C@@H]3CCC4=CC(=O)C=C[C@]4(C)C3[C@@H](O)C[C@@]21C (stereo partly drawn)
TGI (COLO 205 colon): > 100 µM
TGI (EKVX NSCLC): > 100 µM
TGI (KM12 colon): > 100 µM
TGI (LOX IMVI melanoma): > 100 µM
TGI (MOLT-4 leukemia): > 100 µM
TGI (NCI-H23 lung): > 100 µM
TGI (RPMI-8226 leukemia): > 100 µM
TGI (RXF 393 renal): > 100 µM
TGI (SF-268 CNS): > 79.9 µM

COc1ccc2[nH]c3c(cnn4cnnc34)c2c1
TGI (COLO 205 colon): > 100 µM
TGI (EKVX NSCLC): > 100 µM
TGI (KM12 colon): > 100 µM
TGI (LOX IMVI melanoma): > 100 µM
TGI (MOLT-4 leukemia): > 100 µM
TGI (NCI-H23 lung): > 100 µM
TGI (RPMI-8226 leukemia): > 100 µM
TGI (RXF 393 renal): > 100 µM
TGI (SF-268 CNS): > 100 µM

Cc1ccc2sc3cc(=O)cc(C)c-3nc2c1
TGI (COLO 205 colon): > 100 µM
TGI (EKVX NSCLC): > 100 µM
TGI (KM12 colon): > 100 µM
TGI (MOLT-4 leukemia): > 100 µM
TGI (NCI-H23 lung): > 100 µM
TGI (SF-268 CNS): > 100 µM

O=C1CCC(c2nc3ccccc3o2)C(=O)N1 (stereo not drawn)
TGI (A498 renal): > 100 µM
TGI (COLO 205 colon): > 100 µM
TGI (EKVX NSCLC): > 100 µM
TGI (KM12 colon): > 100 µM
TGI (LOX IMVI melanoma): > 100 µM
TGI (MOLT-4 leukemia): > 100 µM
TGI (NCI-H23 lung): > 100 µM
TGI (RXF 393 renal): > 100 µM
TGI (SF-268 CNS): > 100 µM

CCCCCCn1c(-c2ccc(C(=O)O/N=C(\N)c3ccc(OC)cc3)cc2)nc(-c2ccccc2)c1-c1ccccc1
GI50 (EKVX NSCLC): 1.7 µM
TGI (EKVX NSCLC): 3.38 µM
GI50 (KM12 colon): 2.81 µM
TGI (KM12 colon): > 100 µM
GI50 (LOX IMVI melanoma): 0.186 µM
TGI (LOX IMVI melanoma): 0.341 µM
GI50 (MOLT-4 leukemia): 1.41 µM
TGI (MOLT-4 leukemia): 4.08 µM
GI50 (NCI-H23 lung): 1.31 µM
TGI (NCI-H23 lung): 2.93 µM
GI50 (RPMI-8226 leukemia): 1.42 µM
TGI (RPMI-8226 leukemia): 3.9 µM
GI50 (RXF 393 renal): 1.62 µM
TGI (RXF 393 renal): 3.17 µM

Clc1nc(Cl)c2ncn(C/C=C\Cn3cnc4c(Cl)nc(Cl)nc43)c2n1
GI50 (A498 renal): 1.51 µM
TGI (A498 renal): 3.23 µM
GI50 (COLO 205 colon): 2.09 µM
TGI (COLO 205 colon): 4.82 µM
GI50 (EKVX NSCLC): 1.97 µM
TGI (EKVX NSCLC): 3.76 µM
GI50 (KM12 colon): 1.71 µM
TGI (KM12 colon): 3.2 µM
GI50 (LOX IMVI melanoma): 1.8 µM
TGI (LOX IMVI melanoma): 3.48 µM
GI50 (MOLT-4 leukemia): 2.05 µM
TGI (MOLT-4 leukemia): 4.11 µM
GI50 (NCI-H23 lung): 2.09 µM
TGI (NCI-H23 lung): 5.11 µM
GI50 (RXF 393 renal): 2.18 µM
TGI (RXF 393 renal): 4.35 µM
GI50 (SF-268 CNS): 2.24 µM
TGI (SF-268 CNS): 5.71 µM

[N-]=[N+]=Nc1ncc(-c2ccc(C(F)(F)F)cc2)c(NC2CCCCCC2)n1
GI50 (A498 renal): > 10 µM
TGI (A498 renal): > 10 µM
GI50 (COLO 205 colon): > 10 µM
TGI (COLO 205 colon): > 10 µM
GI50 (KM12 colon): > 10 µM
TGI (KM12 colon): > 10 µM
GI50 (LOX IMVI melanoma): > 10 µM
TGI (LOX IMVI melanoma): > 10 µM
GI50 (MOLT-4 leukemia): > 10 µM
TGI (MOLT-4 leukemia): > 10 µM
GI50 (NCI-H23 lung): > 10 µM
TGI (NCI-H23 lung): > 10 µM
GI50 (RPMI-8226 leukemia): > 10 µM
TGI (RPMI-8226 leukemia): > 10 µM
GI50 (RXF 393 renal): > 10 µM
TGI (RXF 393 renal): > 10 µM
GI50 (SF-268 CNS): > 10 µM
TGI (SF-268 CNS): > 10 µM

CCN(CC)CCC(=O)Nc1cccc2c1C(=O)c1c(c(O)c3ccccc3c1O)C2=O
GI50 (A498 renal): 17.7 µM
TGI (A498 renal): 47.6 µM
GI50 (COLO 205 colon): 20.7 µM
TGI (COLO 205 colon): > 100 µM
GI50 (KM12 colon): 21.5 µM
TGI (KM12 colon): > 100 µM
GI50 (LOX IMVI melanoma): 5.77 µM
TGI (LOX IMVI melanoma): 23.7 µM
GI50 (MOLT-4 leukemia): 8.27 µM
TGI (MOLT-4 leukemia): 72.5 µM
GI50 (NCI-H23 lung): 21.9 µM
TGI (NCI-H23 lung): > 100 µM
GI50 (RPMI-8226 leukemia): 14.2 µM
TGI (RPMI-8226 leukemia): 43.1 µM
GI50 (RXF 393 renal): 4.16 µM
TGI (RXF 393 renal): 23.8 µM
GI50 (SF-268 CNS): 12.7 µM
TGI (SF-268 CNS): 36.5 µM

COc1ccc(Cl)cc1N1C(=O)C(Cl)=C(Nc2cccc(O)c2)C1=O
GI50 (COLO 205 colon): 21.6 µM
TGI (COLO 205 colon): 57.1 µM
GI50 (EKVX NSCLC): 32.8 µM
TGI (EKVX NSCLC): > 100 µM
GI50 (KM12 colon): 28.7 µM
TGI (KM12 colon): > 100 µM
GI50 (LOX IMVI melanoma): 15.8 µM
TGI (LOX IMVI melanoma): 32.8 µM
GI50 (MOLT-4 leukemia): 15.4 µM
TGI (MOLT-4 leukemia): 49.4 µM
GI50 (NCI-H23 lung): 16.6 µM
TGI (NCI-H23 lung): 41.4 µM
GI50 (RPMI-8226 leukemia): 7.01 µM
TGI (RPMI-8226 leukemia): 32.3 µM
GI50 (RXF 393 renal): 7.36 µM
TGI (RXF 393 renal): 29 µM
GI50 (SF-268 CNS): 13.2 µM
TGI (SF-268 CNS): 30.7 µM

COc1n[n+]([O-])c(C)cc1[N+](=O)[O-]
GI50 (A498 renal): 20.2 µM
TGI (A498 renal): 46.3 µM
GI50 (EKVX NSCLC): 18.1 µM
TGI (EKVX NSCLC): 34.3 µM
GI50 (KM12 colon): 11.4 µM
TGI (KM12 colon): 30.3 µM
GI50 (LOX IMVI melanoma): 12.7 µM
TGI (LOX IMVI melanoma): 36 µM
GI50 (MOLT-4 leukemia): 10.7 µM
TGI (MOLT-4 leukemia): 35.1 µM
GI50 (NCI-H23 lung): 14.8 µM
TGI (NCI-H23 lung): 30.3 µM
GI50 (RPMI-8226 leukemia): 2.73 µM
TGI (RPMI-8226 leukemia): 19.1 µM
GI50 (RXF 393 renal): 13.3 µM
TGI (RXF 393 renal): 28.7 µM
GI50 (SF-268 CNS): 18.1 µM
TGI (SF-268 CNS): 39.4 µM

COC(=O)c1nc(-c2ccc(Cl)c(Cl)c2)nc2ccccc12
TGI (A498 renal): > 73.7 µM
TGI (EKVX NSCLC): > 100 µM
TGI (KM12 colon): > 100 µM
TGI (LOX IMVI melanoma): > 100 µM
TGI (MOLT-4 leukemia): > 100 µM
TGI (NCI-H23 lung): > 100 µM
TGI (RPMI-8226 leukemia): > 100 µM
TGI (RXF 393 renal): 42.9 µM
TGI (SF-268 CNS): > 100 µM

Cc1cc2c(cn1)C(=O)OCC2
TGI (A498 renal): > 100 µM
TGI (EKVX NSCLC): > 100 µM
TGI (KM12 colon): > 100 µM
TGI (LOX IMVI melanoma): > 100 µM
TGI (MOLT-4 leukemia): > 100 µM
TGI (NCI-H23 lung): > 100 µM
TGI (RPMI-8226 leukemia): > 100 µM
TGI (RXF 393 renal): > 100 µM
TGI (SF-268 CNS): > 100 µM

Reference: PubChem BioAssay (NCI)
